Patent US9925189B2, “Heterocyclic receptor agonists for the treatment of diabetes and metabolic disorders” (CymaBay Therapeutics, Inc., priority 2006, dated 2018)

Target: T1, IC-GPCR2 (Homo sapiens, UniProt Q8TDV5, S309L)
T1 construct: expressed in transfected cells
T1 sequence (Q8TDV5 1-335 S309L): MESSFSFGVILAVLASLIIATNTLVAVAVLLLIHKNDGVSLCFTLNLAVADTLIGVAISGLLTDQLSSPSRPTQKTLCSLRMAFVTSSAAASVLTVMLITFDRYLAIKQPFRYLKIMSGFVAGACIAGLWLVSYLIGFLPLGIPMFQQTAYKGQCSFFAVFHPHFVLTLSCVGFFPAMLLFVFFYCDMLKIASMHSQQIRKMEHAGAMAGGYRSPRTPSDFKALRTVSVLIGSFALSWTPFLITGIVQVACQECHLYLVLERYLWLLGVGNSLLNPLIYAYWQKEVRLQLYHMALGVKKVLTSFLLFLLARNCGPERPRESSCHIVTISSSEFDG
Assay: Stimulation of cAMP in CHO cells stably expressing IC-GPCR2 (HTRF cAMP assay)
Format: cell-based
Conditions: 0.5 h, 30 minutes, IC-GPCR2 stably expressing CHO cells, read-out: Activity at 10 uM (% change in FRET signal from DMSO control)
In short: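 CHO cells stably expressing IC-GPCR2, plated at 17500 cells/well, treated next day for 30 min in Ham's F12 with compounds at 6–8 concentrations from 0.00003 to 10 μM; parental CHO cells also screened. Intracellular cAMP read by HTRF competitive immunoassay (665/620 nm ratio). Activity given as % FRET change from DMSO control.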

SMILES	activation at 10 µM [%]
COC(=O)c1cc(C)nc(N2CCC(c3nc(COc4ccc(-n5cnnn5)cc4)cs3)CC2)n1 [Example 173, 6-Methyl-2-{4-[4-(4-tetrazol-1-yl-phenoxymethyl)-thiazol-2-yl]-piperidin-1-yl}-pyrimidine-4-carboxylic acid methyl ester]	75
O=[N+]([O-])c1cnc(N2CCC(c3nc(COc4ccc(-n5cnnn5)cc4)cs3)CC2)nc1 [Example 192, 5-Nitro-2-{4-[4-(4-tetrazol-1-yl-phenoxymethyl)-thiazol-2-yl]-piperidin-1-yl}-pyrimidine]	74
CCc1noc(N2CCC(c3nc(COc4ccc(-n5cnnn5)cc4)cs3)CC2)n1 [Example 96, 1-(3-Ethyl-[1,2,4]oxadiazol-5-yl)-4-[4-(4-tetrazol-1-yl-phenoxymethyl)-thiazol-2-yl]-piperidine]	79
CCc1cnc(N2CCC(c3nc(CNc4ccc(F)nc4)cs3)CC2)nc1 [Example 188, {2-[1-(5-Ethyl-pyrimidin-2-yl)-piperidin-4-yl]-thiazol-4-ylmethyl}-(6-fluoro-pyridin-3-yl)-amine]	69
CC(C)(C)OC(=O)N1CCC(c2nc(COc3ccc(-n4cnnn4)cc3F)co2)CC1 [Example 122, 4-[4-(2-Fluoro-4-tetrazol-1-yl-phenoxymethyl)-oxazol-2-yl]-piperidine-1-carboxylic acid tert-butyl ester]	76
NC(=O)N1CCC(c2nc(COc3ccc(-n4cnnn4)cc3)cs2)CC1 [Example 99, 4-[4-(4-Tetrazol-1-yl-phenoxymethyl)-thiazol-2-yl]-piperidine-1-carboxylic acid amide]	67
CC(C)(C)OC(=O)N1CCC(c2nc(COc3c(F)cc(-n4cnnn4)cc3F)cs2)CC1 [Example 112, 4-[4-(2,6-Difluoro-4-tetrazol-1-yl-phenoxymethyl)-thiazol-2-yl]-piperidine-1-carboxylic acid tert-butyl ester]	57
Cc1cnc(N2CCC(c3nc(COc4ccc(-n5cnnn5)nc4)cs3)CC2)nc1 [Example 183, 5-Methyl-2-{4-[4-(6-tetrazol-1-yl-pyridin-3-yloxymethyl)-thiazol-2-yl]-piperidin-1-yl}-pyrimidine]	78
COc1cnc(N2CCC(c3nc(COc4ccc(-n5cnnn5)cc4)cs3)CC2)nc1 [Example 68, 5-Methoxy-2-{4-[4-(4-tetrazol-1-yl-phenoxymethyl)-thiazol-2-yl]-piperidin-1-yl}-pyrimidine]	53
CC(C)(C)OC(=O)N1CCC(F)(c2nc(COc3ccc(S(C)(=O)=O)cc3)cs2)CC1 [Example 87, 4-Fluoro-4-[4-(4-methanesulfonyl-phenoxymethyl)-thiazol-2-yl]-piperidine-1-carboxylic acid tert-butyl ester]	62
FC(F)(F)c1cnc(N2CCC(c3nc(COc4ccc(-n5cnnn5)cc4Cl)cs3)CC2)nc1 [Example 166, 2-{4-[4-(2-Chloro-4-tetrazol-1-yl-phenoxymethyl)-thiazol-2-yl]-piperidin-1-yl}-5-trifluoromethyl-pyrimidine]	74
CS(=O)(=O)c1ccc(OCc2csc(C3CCN(C(=O)Oc4ccc(F)cc4)CC3)n2)cc1 [Example 27, 4-[4-(4-Methanesulfonyl-phenoxymethyl)-thiazol-2-yl]-piperidine-1-carboxylic acid 4-fluoro-phenyl ester]	63
CC(C)(C)OC(=O)N1CCC(c2nc(COc3ccc(-n4cncn4)cc3)cs2)CC1 [Example 5, 4-[4-(4-[1,2,4]Triazol-1-yl-phenoxymethyl)-thiazol-2-yl]-piperidine-1-carboxylic acid tert-butyl ester]	60
C[C@H]1CN(c2ncc(C(F)(F)F)cn2)CC[C@H]1c1nc(COc2ccc(-n3cnnn3)cc2F)cs1 (stereo in doubt) [Example 202, 2-{4-[4-(2-Fluoro-4-tetrazol-1-yl-phenoxymethyl)-thiazol-2-yl]-3-methyl-piperidin-1-yl}-5-trifluoromethyl-pyrimidine]	83
Clc1cnc(N2CCC(c3nc(COc4ccc(-n5cnnn5)cc4Cl)cs3)CC2)nc1 [Example 165, 5-Chloro-2-{4-[4-(2-chloro-4-tetrazol-1-yl-phenoxymethyl)-thiazol-2-yl]-piperidin-1-yl}-1-pyrimidine]	71
C[C@H]1CN(c2ncc(Cl)cn2)CC[C@H]1c1nc(COc2ccc(-n3cnnn3)cc2F)cs1 (stereo in doubt) [Example 201, 5-Chloro-2-{4-[4-(2-fluoro-4-tetrazol-1-yl-phenoxymethyl)-thiazol-2-yl]-3-methyl-piperidin-1-yl}-pyrimidine]	87
CCc1cnc(N2CCC(c3nc(COc4cccc(-n5cnnn5)c4)cs3)CC2)nc1 [Example 11]	34

SMILES	activation at 10 µM [%]
CC(C)(C)OC(=O)N1CCC(c2nc(CNCc3ccc(S(C)(=O)=O)cc3)cs2)CC1 [Example 142, 4-{4-[(4-Methanesulfonyl-benzylamino)-methyl]-thiazol-2-yl}-piperidine-1-carboxylic acid tert-butyl ester]	78
CC(C)(C)OC(=O)N1CCC(c2nc(COc3ccc(S(C)(=O)=O)cc3)cs2)CC1 [Example 1, 4-[4-(4-Methanesulfonyl-phenoxymethyl)-thiazol-2-yl]-piperidine-1-carboxylic acid tert-butyl ester]	69
CCc1cnc(N2CCC(c3nc(COc4ccc(NC=O)cc4)cs3)CC2)nc1 [Example 116, N-(4-{2-[1-(5-Ethyl-pyrimidin-2-yl)-piperidin-4-yl]-thiazol-4-ylmethoxy}-phenyl)-formamide]	74
CCc1cnc(N2CCC(c3nc(CNc4ccc(S(C)(=O)=O)cc4F)cs3)CC2)nc1 [Example 141, {2-[1-(5-Ethyl-pyrimidin-2-yl)-piperidin-4-yl]-thiazol-4-ylmethyl}-(2-fluoro-4-methanesulfonyl-phenyl)-amine]	64
CC(C)(C)OC(=O)N1CCC(c2nc(COc3ccc(Br)cc3)cs2)CC1 [Example 140, 4-[4-(4-Bromo-phenoxymethyl)-thiazol-2-yl]-piperidine-1-carboxylic acid tert-butyl ester]	62
O=C(CN1CCC(c2nc(COc3ccc(-n4cnnn4)cc3)cs2)CC1)c1ccc(OC(F)(F)F)cc1 [Example 153, 2-{4-[4-(4-Tetrazol-1-yl-phenoxymethyl)-thiazol-2-yl]-piperidin-1-yl}-1-(4-trifluoromethoxy-phenyl)-ethanone]	44
O=C(OCCOCc1ccccc1)N1CCC(c2nc(COc3ccc(-n4cnnn4)cc3)cs2)CC1 [Example 37, 4-[4-(4-Tetrazol-1-yl-phenoxymethyl)-thiazol-2-yl]-piperidine-1-carboxylic acid 2-benzyloxy-ethyl ester]	80
CC(C)(C)OC(=O)N1CCC(c2noc(COCc3ccccc3)n2)CC1 [Example 83, 4-(5-Benzyloxymethyl-[1,2,4]oxadiazol-3-yl)-piperidine-1-carboxylic acid tert-butyl ester]	27
Clc1cnc(N2CCC(c3nc(COc4ccc(-n5cnnn5)nc4)cs3)CC2)nc1 [Example 184, 5-Chloro-2-{4-[4-(6-tetrazol-1-yl-pyridin-3-yloxymethyl)-thiazol-2-yl]-piperidin-1-yl}-pyrimidine]	69
CC(C)(C)OC(=O)N1CCC(c2nc(COc3ccc(S(=O)(=O)C(F)(F)F)cc3)cs2)CC1 [Example 110, 4-[4-(4-Trifluoromethanesulfonyl-phenoxymethyl)-thiazol-2-yl]-piperidine-1-carboxylic acid tert-butyl ester]	51
CC(C)(C)OC(=O)N1CCC(c2nc(COc3ccc(C#N)cc3F)cs2)CC1 [Example 126, 4-[4-(4-Cyano-2-fluoro-phenoxymethyl)-thiazol-2-yl]-piperidine-1-carboxylic acid tert-butyl ester]	87
CCCN1CCC(c2nc(COc3ccc(-n4cnnn4)cc3)cs2)CC1 [Example 150, 1-Propyl-4-[4-(4-tetrazol-1-yl-phenoxymethyl)-thiazol-2-yl]-piperidine]	32
COc1ccc(OC(=O)N2CCC(c3nc(COc4ccc(S(C)(=O)=O)cc4)cs3)CC2)cc1 [Example 28, 4-[4-(4-Methanesulfonyl-phenoxymethyl)-thiazol-2-yl]-piperidine-1-carboxylic acid 4-methoxy-phenyl ester]	62
CS(=O)(=O)c1ccc(OCc2csc(C3CCN(C(=O)C45CC6CC(CC(C6)C4)C5)CC3)n2)cc1 [Example 39, Adamantan-1-yl-{4-[4-(4-methanesulfonyl-phenoxymethyl)-thiazol-2-yl]-piperidin-1-yl}-methanone]	9
CC(C)CS(=O)(=O)N1CCN(c2nc(COc3ccc(S(C)(=O)=O)cc3)cs2)CC1 [Example 92, 1-[4-(4-Methanesulfonyl-phenoxymethyl)-thiazol-2-yl]-4-(2-methyl-propane-1-sulfonyl)-piperazine]	14
CC(C)(C)OC(=O)N1CCC(c2nc(CNc3ccc(-n4cnnn4)cc3)cs2)CC1 [Example 114, 4-{4-[(4-Tetrazol-1-yl-phenylamino)-methyl]-thiazol-2-yl}-piperidine-1-carboxylic acid tert-butyl ester]	68
